Source: US11332459B2 (TEIJIN PHARMA LIMITED, priority 2017, dated 2022)
Counter-ions that a name gives are not always drawn.

Target: T1, human TRPC6 (Homo sapiens, UniProt Q9Y210)
T1 construct: expressed in transfected cells
T1 sequence (Q9Y210 1-931): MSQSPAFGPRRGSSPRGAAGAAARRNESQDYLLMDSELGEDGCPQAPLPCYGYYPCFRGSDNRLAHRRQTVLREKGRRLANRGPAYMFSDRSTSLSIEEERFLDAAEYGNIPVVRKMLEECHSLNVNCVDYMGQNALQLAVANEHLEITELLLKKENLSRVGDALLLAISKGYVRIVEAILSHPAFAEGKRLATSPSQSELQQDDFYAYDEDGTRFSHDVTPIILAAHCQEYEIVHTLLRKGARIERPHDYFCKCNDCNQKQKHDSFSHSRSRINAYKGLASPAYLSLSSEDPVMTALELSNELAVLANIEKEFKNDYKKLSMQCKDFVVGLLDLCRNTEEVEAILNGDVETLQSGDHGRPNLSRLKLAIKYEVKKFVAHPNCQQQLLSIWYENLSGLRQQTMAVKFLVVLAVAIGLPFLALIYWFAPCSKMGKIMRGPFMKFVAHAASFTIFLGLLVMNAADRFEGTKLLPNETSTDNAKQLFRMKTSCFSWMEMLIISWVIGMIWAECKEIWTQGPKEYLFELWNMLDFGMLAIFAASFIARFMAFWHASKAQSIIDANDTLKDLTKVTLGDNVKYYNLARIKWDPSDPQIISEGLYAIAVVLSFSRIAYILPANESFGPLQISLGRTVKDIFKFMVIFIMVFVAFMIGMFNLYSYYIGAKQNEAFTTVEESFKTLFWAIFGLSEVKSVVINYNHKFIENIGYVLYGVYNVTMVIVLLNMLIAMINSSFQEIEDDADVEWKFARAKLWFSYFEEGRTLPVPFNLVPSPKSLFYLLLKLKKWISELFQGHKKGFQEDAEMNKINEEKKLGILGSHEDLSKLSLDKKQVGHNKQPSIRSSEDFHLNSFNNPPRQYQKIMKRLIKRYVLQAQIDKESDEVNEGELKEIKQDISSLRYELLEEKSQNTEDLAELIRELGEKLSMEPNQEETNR
Assay: TRPC6 calcium flux assay (FLIPR, OAG-stimulated calcium influx)
Assay type: cell-based
Conditions: HEK293 cells stably transfected with human TRPC6, read-out: hTRPC6 Potency
Protocol: Biological Example 1 TRPC6 Calcium Flux Assay
Potency of TRPC6 (Transient receptor potential channel family C6) inhibitors were measured by their inhibition of Calcium influx trigged by […] (1-Oleoyl-2-acetyl-sn-glycerol, Millipore Sigma, O6754) stimulation on HEK293 cells stablely transfected with human TRPC6 using a FLIPR tetra system. Cells were grown in a humidified environment at 37° C. under 5% CO2 using the growth medium with the following selective reagents (Dulbecco's Modified Eagle's Medium (DMEM) high glucose, 10% Fetal Bovine Serum, 1×PSGlu (penicillin-streptomycin glutamine), 1×NEAA (Non-essential amino acid), 1× Na Pyruvate and 200 ug/ml Hygromycin). For general passage, cells were grown to 70-90% confluency; the media was removed, and the cells were gently washed 2 times with calcium and magnesium free PBS (phosphate-buffered saline). Trypsin (3 mL) was applied for 5 minutes at 37° C. The cells were dislodged by rapping flask against base of a hand and 7 mL of growth medium was added to deactivate trypsin and re-suspend cells. The usual splitting schedule was 1:5 every 2-3 days.
Cells were plated the day before the assay, plating cell density is 1.0-1.5×10^4/25 μl/well in poly-D-lysine (PDL) coated 384-well plates using either multichannel pipettes or multidrop. These cells were first incubated with fluorescence dye at room temperature for 90-120 minutes after they were grown on PDL-coated 384-well black plates overnight (Dye loading buffer 10 ml example: 9 mL assay buffer, 1 mL, 10×PBX signal enhancer, 10 μL Calcium indicator). The cells were incubated with a dose of compounds for 25 minutes before being stimulated with TRPC6 agonist OAG. The OAG solution was prepared by adding OAG into assay buffer (Ca ringer solution base: 10 mM HEPES (4-(2-hydroxyethyl)-1-piperazine-ethanesulfonic acid), 4 mM MgCl2, 120 mM NaCl, 5 mM KCl, pH=7.2 @25° C.)+0.1% BSA+2 mM CaCl2) to the concentration of 0.2 mM/2% DMSO, which achieves a final on cell concentration of 50 uM/0.5% DMSO. 12.5 uL OAG mixture was added and the activation of the TRPC6 channel was measured by the change of intracellular Calcium levels on FLIPR terra system.
Data was acquired by measuring the fluorescent peak signal subtracted from the background during the 180 second imaging frame. Each data point is further normalized to 100% of OAG triggered signal vs. buffer. Table 16 provides the IC50 for each compound, which data is obtained by plotting peak signal over the compound dose.

Row | IC50 [nM] | Structure (SMILES)
1 | > 3750 | CC(C)(C#N)C1CCN(C(=O)Cn2c(N3CC[C@@H](F)[C@H](N)C3)nc3cc(F)c(F)cc32)CC1 [Example 653, 2-(1-(2-(2-((3R,4R)-3-amino-4-fluoropiperidin-1-yl)-5,6-difluoro-1H-benzo[d]imidazol-1-yl)acetyl)piperidin-4-yl)-2-methylpropanenitrile]
2 | 1650 | N[C@@H]1CCCN(c2nc3ccccc3n2Cc2ccc(Cl)cc2)C1 [Example 377, (R)-1-(1-(4-chlorobenzyl)-1H-benzo[d]imidazol-2-yl)piperidin-3-amine]
3 | 6.47 | N[C@@H]1CN(c2nc3cc(F)c(F)cc3n2Cc2ccc(Cl)cc2F)CC[C@H]1F [Example 358, (3R,4R)-1-(1-(4-chloro-2-fluorobenzyl)-5,6-difluoro-1H-benzimidazol-2-yl)-4-fluoro-3-piperidinamine]
4 | 6.51 | Cc1nnc(Cn2c(N3CC[C@@H](F)[C@H](N)C3)nc3c(F)cc(F)cc32)s1 [Example 552, (3R,4R)-1-(4,6-difluoro-1-((5-methyl-1,3,4-thiadiazol-2-yl)methyl)-1H-benzo[d]imidazol-2-yl)-4-fluoropiperidin-3-amine]
5 | 47.7 | N#Cc1ccc(Cn2c(N3CC[C@@H](O)[C@H](N)C3)nc3cc(F)ccc32)nc1 [Example 208, 6-((2-((3R,4R)-3-amino-4-hydroxypiperidin-1-yl)-5-fluoro-1H-benzo[d]imidazol-1-yl)methyl)nicotinonitrile]
6 | 3200 | C[C@H](c1ccc(Cl)c(Cl)c1)n1c(N2CC[C@@H](F)[C@H](N)C2)nc2cc(F)c(F)cc21 [Example 332, (3R,4R)-1-(1-((1R)-1-(3,4-dichlorophenyl)ethyl)-5,6-difluoro-1H-benzimidazol-2-yl)-4-fluoro-3-piperidinamine]
7 | 383 | CN(CC(F)(F)F)C(=O)Cn1c(N2CCCC3(CCCN3)C2)nc2ccc(F)cc21 (stereo not drawn) [Example 472, 2-(6-fluoro-2-(1,7-diazaspiro[4.5]decan-7-yl)-1H-benzo[d]imidazol-1-yl)-N-methyl-N-(2,2,2-trifluoroethyl)acetamide]
8 | 7.9 | CCN(C)C(=O)Cn1c(N2CC[C@@H](F)[C@H](N)C2)nc2cc(F)c(F)cc21 [Example 605, 2-(2-((3R,4R)-3-amino-4-fluoropiperidin-1-yl)-5,6-difluoro-1H-benzo[d]imidazol-1-yl)-N-ethyl-N-methylacetamide]
9 | 4.71 | N#Cc1ccc(Cn2c(N3CC[C@@H](F)[C@H](N)C3)nc3ccc(C#N)cc32)cc1 [Example 158, 2-((3R,4R)-3-amino-4-fluoro-1-piperidinyl)-1-(4-cyanobenzyl)-1H-benzimidazole-6-carbonitrile]
10 | 30.8 | N#Cc1ccccc1Cn1c(N2CC[C@@H](F)[C@H](N)C2)nc2cc(F)c(F)cc21 [Example 353, 2-((2-((3R,4R)-3-amino-4-fluoro-1-piperidinyl)-5,6-difluoro-1H-benzimidazol-1-yl)methyl)benzonitrile]
11 | 76.6 | CN(C)C(=O)Cn1c(N2CC[C@@H](F)[C@H](N)C2)nc2cc(Cl)ccc21 [Example 506, 2-(2-((3R,4R)-3-amino-4-fluoropiperidin-1-yl)-5-chloro-1H-benzo[d]imidazol-1-yl)-N,N-dimethylacetamide]
12 | 20.8 | CN(CC(F)(F)F)C(=O)Cn1c(N2CC[C@@H](F)[C@H](N)C2)nc2ccc(F)cc21 [Example 445, 2-(2-((3R,4R)-3-amino-4-fluoropiperidin-1-yl)-6-fluoro-1H-benzo[d]imidazol-1-yl)-N-methyl-N-(2,2,2-trifluoroethyl)acetamide]
13 | 219 | N[C@@H]1CN(c2nc3cc(Br)ccc3n2CC(=O)N2CCC2)CC[C@H]1F [Example 470, 2-(2-((3R,4R)-3-amino-4-fluoropiperidin-1-yl)-5-bromo-1H-benzo[d]imidazol-1-yl)-1-(azetidin-1-yl)ethan-1-one]
14 | > 50000 | CS(=O)(=O)c1ccc(Cn2c(N3CCC[C@@H](N)C3)nc3ccccc32)cc1 [Example 370, (R)-1-(1-(4-(methylsulfonyl)benzyl)-1H-benzo[d]imidazol-2-yl)piperidin-3-amine]
15 | 18.3 | N[C@@H]1CN(c2nc3cc(F)c(F)cc3n2CC(=O)N2CC(F)(F)C2)CC[C@H]1F [Example 428, 2-(2-((3R,4R)-3-amino-4-fluoropiperidin-1-yl)-5,6-difluoro-1H-benzo[d]imidazol-1-yl)-1-(3,3-difluoroazetidin-1-yl)ethanone]
16 | 380 | N#Cc1ccc(Cn2c(N3C[C@H]4C[C@@]4(CN)C3)nc3ccccc32)nc1 [Example 74, 6-((2-((1R,5S)-1-(aminomethyl)-3-azabicyclo[3.1.0]hexan-3-yl)-1H-benzo[d]imidazol-1-yl)methyl)nicotinonitrile hydrochloride]
17 | 197 | CC1CCN(C(=O)Cn2c(N3CC[C@@H](F)[C@H](N)C3)nc3cc(F)c(F)cc32)CC1 [Example 516, 2-(2-((3R,4R)-3-amino-4-fluoropiperidin-1-yl)-5,6-difluoro-1H-benzo[d]imidazol-1-yl)-1-(4-methylpiperidin-1-yl)ethan-1-one]
18 | 5850 | N[C@@H]1CCCN(c2nc3ccccc3n2Cc2c(Cl)cccc2Cl)C1 [Example 373, (R)-1-(1-(2,6-dichlorobenzyl)-1H-benzo[d]imidazol-2-yl)piperidin-3-amine]
19 | > 3750 | NC(=O)C1CCN(C(=O)Cn2c(N3CC[C@@H](F)[C@H](N)C3)nc3cc(F)c(F)cc32)CC1 [Example 532, 1-(2-(2-((3R,4R)-3-amino-4-fluoropiperidin-1-yl)-5,6-difluoro-1H-benzo[d]imidazol-1-yl)acetyl)piperidine-4-carbaxamide]
20 | 0.49 | N[C@@H]1CN(c2nc3cc(F)c(F)cc3n2CC(=O)N2CCCC2)CC[C@H]1F [Example 277, 2-(2-((3R,4R)-3-amino-4-fluoro-1-piperidinyl)-5,6-difluoro-1H-benzimidazol-1-yl)-1-(1-pyrrolidinyl)ethanone]
21 | 217 | N#Cc1ccc(Cn2c(N3CC[C@H](O)[C@H](N)C3)nc3ccc(F)cc32)nc1 [Example 311, 6-((2-((3R,4S)-3-amino-4-hydroxypiperidin-1-yl)-6-fluoro-1H-benzo[d]imidazol-1-yl)methyl)nicotinonitrile]
22 | 19.4 | CN[C@H]1CCCN(c2nc3ccccc3n2[C@@H](C)c2ccc(C#N)cn2)C1 [Example 256, 6-((1S)-1-(2-((3S)-3-(methylamino)-1-piperidinyl)-1H-benzimidazol-1-yl)ethyl)-3-pyridinecarbonitrile]
23 | > 3750 | N#Cc1ccc(Cn2c(N3CC[C@@H]4CCN[C@H]4C3)nc3ccccc32)nc1 [Example 23, 6-((2-((3aS,7aR)-hexahydro-1H-pyrrolo[2,3-c]pyridin-6(2H)-yl)-1H-benzo[d]imidazol-1-yl)methyl)nicotinonitrile]
24 | > 3750 | COc1cc(F)cc2nc(N3CC[C@@H](F)[C@H](N)C3)n(CC(=O)N3CCOCC3)c12 [Example 546, 2-(2-((3R,4R)-3-amino-4-fluoropiperidin-1-yl)-5-fluoro-7-methoxy-1H-benzo[d]imidazol-1-yl)-1-morpholinoethan-1-one]
